Measured values: ChEMBL document CHEMBL1151345, “Isolation of a new potential antitumor compound from Wedelia asperrima” (J Nat Prod, 1980)
Active and inactive are the calls of the source. No cut-off for these calls is given here.

Key:
Mus musculus = assay: Toxicity in ip dosed mouse; assay type: organism-based; details: in vivo
Rattus norvegicus [1] = species: Rattus norvegicus; assay: Toxicity in Wistar rat; assay type: organism-based; details: in vivo
Rattus norvegicus [2] = species: Rattus norvegicus; assay: Antitumor activity against aflatoxin B1-induced tumor in Wistar rat at 30 ug for 8 weeks; assay type: functional, organism-based

| Structure (SMILES) | LD100 (Mus musculus) | LD100 (Rattus norvegicus [1]) | Activity (Rattus norvegicus [2]) |
| --- | --- | --- | --- |
| C=C1[C@H](O)[C@]23CC[C@H]4C(C(=O)O)(C(=O)O)C[C@@H](O[C@@H]5O[C@H](CO)[C@@H](O[C@@H]6O[C@@H](C)[C@H](O)[C@@H](O)[C@H]6O)[C@H](OC(=O)CCc6ccccc6)[C@H]5NC(=O)CC(C)C)C[C@]4(C)[C@H]2CC[C@@]1(O)C3 | 1 mg/kg | 1 mg/kg |  |
| C=C1[C@H](O)[C@]23CC[C@H]4C(C(=O)O)(C(=O)O)C[C@@H](O[C@@H]5O[C@H](CO)[C@@H](O)[C@H](OC(=O)CCc6ccccc6)[C@H]5NC(=O)CC(C)C)C[C@]4(C)[C@H]2CC[C@@]1(O)C3 [WEDELOSIDE] | 1 mg/kg | 1 mg/kg | Active |
